Measured values taken from patent publication US20010013317A1, “Medium for coloring live bait worms” (priority 1999, published 2001).
Converted amounts (≈) assume the structure as drawn. “Also recorded” adds a separate entry of the source.

Experiments:
[1] = tested on: live bait worms; assay: Coloring and viability of live bait worms kept in peat loam medium mixed with colorant (8 oz cup, 12 worms); format: in vivo; conditions: for Effectiveness as worm coloring agent (coloration of worms) / Worm viability / mortality: powdered colorant in peat loam, 8 oz cup, inspected at 24 hrs, 36 hrs, 3-4 weeks
Excerpt: The inventor conducted numerous experiments to determine the effectiveness of a number of color additives to color live bait worms.
Experimental procedure. Each powdered colorant was mixed with peat loam medium and added to an 8 oz cup containing 12 healthy and natural worms. Concentrations given as mg colorant per 8 oz cup containing about 120 g peat loam. Worms were inspected for color and viability 24 hrs., 36 hrs., and when still viable, 3-4 weeks later.

[2] = tested on: live bait worms; assay: Incubation and storage of worms in bait cup topped with coloring medium; format: in vivo; conditions: 8-24 worms, 8 to 12 ounce cup, coloring medium 5 g colorant per kg, stored at 34° F. to 38° F.
Protocol: Alternatively, after the incubation, the above bulk colored worms can be divided into smaller amounts and stored in actual point-of-sale containers ready for use as bait by the end user rather than in bulk containers. For example, 8-24 of the worms previously colored in bulk as described above can be added to a normal 8 to 12 ounce Styrofoam, paper, or plastic bait cup and topped with the coloring medium (containing 5 g colorant D&C Yellow 8 per kg of the storage medium). When the container is capped with a lid and stored at 34° F. to 38° F., the worms will remain viable, and colored for about four to six weeks and are ready for immediate use as bait.
In another application of the process, the incubation and storage can be carried out in the same vessel. […]. In this case, the regular, uncolored, worms require an initial incubation period of about one week to lapsed before the worms acquire the desired color and intensity to be used as colored bait worms. The worms will then remain colored and viable in the bait cup of about four to six weeks. In both examples, the worms can be kept viable and colored indefinitely, if required, simply by changing the coloring medium once it has been consumed.

[3] = Solubility of colorant in water; conditions: at 25° C.
[4] = mg colorant per 8 oz cup containing about 120 g peat loam, 12 worms
[5] = 12 worms, listed as D&C Yellow No. 8

Structure (SMILES) | Effectiveness as worm coloring agent (coloration of worms) ([1]; 12 worms) | Worm viability / mortality ([1]; 12 worms) | Solubility in water [3] | further results
O=C([O-])c1c(Cl)c(Cl)c(Cl)c(Cl)c1-c1c2cc(Br)c(=O)c(Br)c-2oc2c(Br)c([O-])c(Br)cc12.[Na+].[Na+] [D & C Red 28] | Worms become pinkish | mg. Increased mortality | – | Concentration range in which worms become colored [1, 4]: tration between 50-800 mg
O=C1OC2(c3ccc([O-])cc3Oc3cc([O-])ccc32)c2ccccc21.[Na+].[Na+] [D & C Yellow 8, uranine] | main bright Chartreuse | very healthy and viable | – | Amount at which dye remains non-toxic to worms ([1]; bait cup containing 12 worms): about 2500 mg/8 ounce bait cup; Amount at which dye remains non-toxic, per worm ([1]; from 2500 mg/8 ounce cup with 12 worms): about 150 mg dye per worm; Concentration at which worms remain very healthy and viable [1, 4]: centration of >2500 mg.; Lowest concentration at which worms become and remain colored [1, 4]: ≤ 25 mg. Preferred range; Effectiveness as worm coloring agent (coloration of worms) [1, 5]: intense fluorescent chartreuse color; Worm viability / mortality [1, 5]: non-toxic to worms; also recorded: not detrimental to the viability of the worms; Time worms remain viable and colored in bait cup [2]: about four to six
CCN(Cc1cccc(S(=O)(=O)[O-])c1)c1ccc(C(=C2C=CC(=[N+](CC)Cc3cccc(S(=O)(=O)[O-])c3)C=C2)c2ccccc2S(=O)(=O)[O-])cc1.[Na+].[Na+] [FD & C Blue 1] | main blue. Worms | viable if carefully | – | –
O=C1/C(=C2\Nc3ccc(S(=O)(=O)[O-])cc3C2=O)Nc2ccc(S(=O)(=O)[O-])cc21.[Na+].[Na+] [FD & C Blue 2] | No colorization. Worms | remain viable | 2 mg/mL | –
COc1cc(S(=O)(=O)[O-])c(C)cc1N=Nc1c(O)ccc2cc(S(=O)(=O)[O-])ccc12.[Na+].[Na+] [FD & C Red 40] | No coloration. Worms | remain viable | 22 mg/mL | –
O=C(O)c1nn(-c2ccc(S(=O)(=O)O)cc2)c(O)c1N=Nc1ccc(S(=O)(=O)O)cc1 [FD & C Yellow 5] | Color not retained. | Worms remain viable | 20 mg/mL (≈ 42.7 mM) | –
O=S(=O)([O-])c1ccc(N=Nc2c(O)ccc3cc(S(=O)(=O)[O-])ccc23)cc1.[Na+].[Na+] [FD & C Yellow 6] | No coloration. Worms | remain viable | – | –
